Measurements: patent publication US11610666B2, “Systems and methods of managing treatment of a chronic condition by symptom tracking” (CORCEPT THERAPEUTICS, INC., priority 2014, dated 2023)

Details: human, in vivo
From the text: Treatment of endocrine disorders, such as Cushing's Syndrome, can be particularly difficult to manage due to less predictable patient response to administration of a synthetic steroid, such as mifepristone. Mifepristone is a synthetic steroid that binds progesterone and glucocorticoid receptors and has been employed to treat a number of conditions including meningioma, uterine fibroids, hyperadrenocorticism, metabolic, oncologic, opthamalogic, central nervous system disorders and certain psychiatric illnesses. Examples of such metabolic disorders include diabetes, obesity, antipsychotic induced weight gain, hypertension, and osteoporosis; examples of oncologic illness include various types of cancers, including ovarian cancer and prostate cancer; examples of central nervous system disorders include Alzheimer's Disease, neurodegenerative diseases, post traumatic stress disorder, and alcohol dependence; and examples of opthamalogical conditions include glaucoma and central serous retinopathy. […] For a particular dose of mifepristone, the plasma drug concentration can differ by as much as 800% from one patient to the next. The varied plasma drug concentration can result in some patients not receiving an efficacious dose of mifepristone. For these patients in particular, it is necessary to improve the pharmacokinetics of mifepristone upon administration. […]

Compound: CC#C[C@]1(O)CC[C@H]2[C@@H]3CCC4=CC(=O)CCC4=C3[C@@H](c3ccc(N(C)C)cc3)C[C@@]21C [mifepristone]
- difference in plasma drug concentration from one patient to the next: ≤ 800%
